Results published in ChEMBL document CHEMBL4732047, “New imidazopyridines with phosphodiesterase 4 and 7 inhibitory activity and their efficacy in animal models of inflammatory and autoimmune diseases” (Eur J Med Chem, 2021).
The source made the active and inactive calls. No cut-off for these calls is given here.

What was measured:
[1] = target: 3',5'-cyclic-AMP phosphodiesterase 4B (Homo sapiens, UniProt Q07343); test: Inhibition of human recombinant PDE4B using cAMP as substrate incubated for 20 mins measured by Kinase Glo reagent based microplate reader assay
Chain of 3',5'-cyclic-AMP phosphodiesterase 4B (Q07343 whole entry): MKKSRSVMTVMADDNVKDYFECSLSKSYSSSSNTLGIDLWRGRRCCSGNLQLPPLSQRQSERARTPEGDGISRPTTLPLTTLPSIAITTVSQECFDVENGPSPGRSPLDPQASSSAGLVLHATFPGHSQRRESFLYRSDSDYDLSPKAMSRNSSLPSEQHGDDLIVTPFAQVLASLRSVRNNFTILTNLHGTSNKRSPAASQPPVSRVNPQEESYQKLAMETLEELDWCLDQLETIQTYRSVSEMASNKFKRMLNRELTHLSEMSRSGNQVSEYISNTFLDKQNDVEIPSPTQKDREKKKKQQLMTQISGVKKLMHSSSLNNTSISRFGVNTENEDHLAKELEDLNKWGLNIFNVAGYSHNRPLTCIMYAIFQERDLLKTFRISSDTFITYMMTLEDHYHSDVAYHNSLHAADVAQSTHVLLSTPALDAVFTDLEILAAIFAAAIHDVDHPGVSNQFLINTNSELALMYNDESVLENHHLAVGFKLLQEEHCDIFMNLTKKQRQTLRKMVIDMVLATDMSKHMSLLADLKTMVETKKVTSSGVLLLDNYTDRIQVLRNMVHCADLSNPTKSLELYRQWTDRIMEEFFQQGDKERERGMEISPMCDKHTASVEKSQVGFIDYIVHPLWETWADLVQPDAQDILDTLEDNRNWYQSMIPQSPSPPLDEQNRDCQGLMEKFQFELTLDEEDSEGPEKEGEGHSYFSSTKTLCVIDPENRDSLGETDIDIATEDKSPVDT

[2] = target: High affinity 3',5'-cyclic-AMP phosphodiesterase 7A (Homo sapiens, UniProt Q13946); test: Inhibition of human recombinant PDE7A using cAMP as substrate incubated for 20 mins measured by Kinase Glo reagent based microplate reader assay
Chain of High affinity 3',5'-cyclic-AMP phosphodiesterase 7A (Q13946 whole entry): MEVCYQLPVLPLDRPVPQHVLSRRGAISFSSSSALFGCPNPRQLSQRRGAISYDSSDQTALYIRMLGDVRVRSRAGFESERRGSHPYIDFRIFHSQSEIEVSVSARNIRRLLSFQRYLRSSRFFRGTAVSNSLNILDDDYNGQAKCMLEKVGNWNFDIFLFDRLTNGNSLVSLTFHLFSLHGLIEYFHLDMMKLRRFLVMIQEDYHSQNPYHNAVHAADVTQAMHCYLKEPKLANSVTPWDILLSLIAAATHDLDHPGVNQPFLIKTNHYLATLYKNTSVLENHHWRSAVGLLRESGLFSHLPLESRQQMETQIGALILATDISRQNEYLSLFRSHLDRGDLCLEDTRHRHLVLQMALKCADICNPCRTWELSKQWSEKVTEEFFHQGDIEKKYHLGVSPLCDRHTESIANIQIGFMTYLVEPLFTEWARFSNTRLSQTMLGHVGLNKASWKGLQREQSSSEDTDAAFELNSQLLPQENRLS

[3] = target: cGMP-dependent 3',5'-cyclic phosphodiesterase (Homo sapiens, UniProt O00408); test: Inhibition of human recombinant PDE2A using cGMP as substrate incubated for 20 mins measured by Kinase Glo reagent based microplate reader assay
Chain of cGMP-dependent 3',5'-cyclic phosphodiesterase (O00408 whole entry): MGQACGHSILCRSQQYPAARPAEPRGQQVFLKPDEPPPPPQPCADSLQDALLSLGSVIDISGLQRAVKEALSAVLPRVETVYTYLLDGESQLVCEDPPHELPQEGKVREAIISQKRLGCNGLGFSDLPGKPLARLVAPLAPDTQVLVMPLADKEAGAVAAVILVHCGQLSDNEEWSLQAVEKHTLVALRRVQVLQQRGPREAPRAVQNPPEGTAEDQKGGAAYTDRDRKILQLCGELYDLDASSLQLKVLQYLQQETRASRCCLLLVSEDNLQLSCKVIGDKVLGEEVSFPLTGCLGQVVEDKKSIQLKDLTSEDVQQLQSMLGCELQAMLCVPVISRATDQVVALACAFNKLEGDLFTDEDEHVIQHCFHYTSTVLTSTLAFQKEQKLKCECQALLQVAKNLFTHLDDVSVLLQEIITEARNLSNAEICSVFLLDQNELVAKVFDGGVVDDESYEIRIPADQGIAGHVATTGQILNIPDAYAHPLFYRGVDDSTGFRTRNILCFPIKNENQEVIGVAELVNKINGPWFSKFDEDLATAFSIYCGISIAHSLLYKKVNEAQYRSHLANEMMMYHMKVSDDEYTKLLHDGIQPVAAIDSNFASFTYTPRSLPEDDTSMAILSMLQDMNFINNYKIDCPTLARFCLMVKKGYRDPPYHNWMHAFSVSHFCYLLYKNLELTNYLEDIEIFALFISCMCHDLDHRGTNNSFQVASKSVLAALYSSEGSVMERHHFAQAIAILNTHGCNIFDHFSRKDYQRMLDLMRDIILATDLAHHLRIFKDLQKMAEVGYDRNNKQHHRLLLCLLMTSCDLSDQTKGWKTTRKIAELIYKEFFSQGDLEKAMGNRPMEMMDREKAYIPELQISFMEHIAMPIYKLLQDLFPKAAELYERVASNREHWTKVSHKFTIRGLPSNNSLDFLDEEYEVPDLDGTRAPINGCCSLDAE

[4] = Selectivity index, ratio of IC50 for inhibition of human recombinant PDE3A to IC50 for inhibition of human recombinant PDE4B
[5] = target: cGMP-specific 3',5'-cyclic phosphodiesterase (Homo sapiens, UniProt O76074); test: Inhibition of human recombinant PDE5A using cGMP as substrate incubated for 20 mins measured by Kinase Glo reagent based microplate reader assay
[6] = target: cGMP-inhibited 3',5'-cyclic phosphodiesterase 3A (Homo sapiens, UniProt Q14432); test: Inhibition of human recombinant PDE3A using cAMP as substrate incubated for 20 mins measured by Kinase Glo reagent based microplate reader assay
Chain of cGMP-inhibited 3',5'-cyclic phosphodiesterase 3A (Q14432 whole entry): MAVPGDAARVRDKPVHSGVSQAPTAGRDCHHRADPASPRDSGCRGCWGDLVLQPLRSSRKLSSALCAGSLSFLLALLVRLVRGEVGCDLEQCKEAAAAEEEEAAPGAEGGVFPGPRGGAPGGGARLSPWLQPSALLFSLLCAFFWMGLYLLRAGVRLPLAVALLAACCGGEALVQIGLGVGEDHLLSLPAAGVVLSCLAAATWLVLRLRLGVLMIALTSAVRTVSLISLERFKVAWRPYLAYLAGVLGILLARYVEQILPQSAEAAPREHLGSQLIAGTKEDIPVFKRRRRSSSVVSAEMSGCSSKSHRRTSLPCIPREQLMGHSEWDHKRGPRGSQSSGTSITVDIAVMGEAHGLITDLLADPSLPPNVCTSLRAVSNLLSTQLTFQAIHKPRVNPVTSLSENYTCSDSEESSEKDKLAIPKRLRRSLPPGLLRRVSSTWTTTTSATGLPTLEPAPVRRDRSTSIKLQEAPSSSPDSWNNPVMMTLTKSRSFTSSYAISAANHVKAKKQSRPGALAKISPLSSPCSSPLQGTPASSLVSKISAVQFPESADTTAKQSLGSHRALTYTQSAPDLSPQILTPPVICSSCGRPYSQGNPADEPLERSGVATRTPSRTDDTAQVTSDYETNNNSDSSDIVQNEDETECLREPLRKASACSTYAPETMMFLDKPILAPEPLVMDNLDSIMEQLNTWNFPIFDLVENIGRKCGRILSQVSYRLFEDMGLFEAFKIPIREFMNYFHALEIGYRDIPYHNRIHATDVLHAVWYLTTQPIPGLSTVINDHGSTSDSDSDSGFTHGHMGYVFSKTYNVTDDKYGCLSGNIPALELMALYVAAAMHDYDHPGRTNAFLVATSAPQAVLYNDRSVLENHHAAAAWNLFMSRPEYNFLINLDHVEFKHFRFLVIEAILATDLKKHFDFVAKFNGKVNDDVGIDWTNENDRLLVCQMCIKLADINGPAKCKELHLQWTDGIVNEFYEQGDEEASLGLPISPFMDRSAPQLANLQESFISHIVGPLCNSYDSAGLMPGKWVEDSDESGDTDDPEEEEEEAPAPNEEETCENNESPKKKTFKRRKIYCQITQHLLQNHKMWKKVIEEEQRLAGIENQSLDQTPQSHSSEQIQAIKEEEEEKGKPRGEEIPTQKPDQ

[7] = target: cAMP and cAMP-inhibited cGMP 3',5'-cyclic phosphodiesterase 10A (Homo sapiens, UniProt Q9Y233); test: Inhibition of human recombinant PDE10A using cAMP as substrate incubated for 20 mins measured by Kinase Glo reagent based microplate reader assay
[8] = target: Dual specificity calcium/calmodulin-dependent 3',5'-cyclic nucleotide phosphodiesterase 1B (Homo sapiens, UniProt Q01064); test: Inhibition of human recombinant PDE1B using cAMP as substrate incubated for 20 mins measured by Kinase Glo reagent based microplate reader assay
Chain of Dual specificity calcium/calmodulin-dependent 3',5'-cyclic nucleotide phosphodiesterase 1B (Q01064 whole entry): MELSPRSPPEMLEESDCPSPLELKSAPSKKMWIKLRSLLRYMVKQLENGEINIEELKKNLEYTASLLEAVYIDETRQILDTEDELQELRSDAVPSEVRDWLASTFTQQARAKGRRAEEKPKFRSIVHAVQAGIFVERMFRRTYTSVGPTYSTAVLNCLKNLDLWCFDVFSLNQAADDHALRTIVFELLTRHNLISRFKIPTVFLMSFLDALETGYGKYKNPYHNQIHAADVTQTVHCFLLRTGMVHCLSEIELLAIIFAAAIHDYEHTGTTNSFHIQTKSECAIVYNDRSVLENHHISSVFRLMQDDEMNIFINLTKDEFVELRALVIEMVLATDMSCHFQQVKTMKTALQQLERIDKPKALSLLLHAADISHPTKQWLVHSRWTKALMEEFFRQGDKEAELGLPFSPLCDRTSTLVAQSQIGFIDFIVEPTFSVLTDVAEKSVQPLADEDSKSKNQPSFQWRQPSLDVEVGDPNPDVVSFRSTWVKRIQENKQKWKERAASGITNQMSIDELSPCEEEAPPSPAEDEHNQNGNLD

[9] = target: 3',5'-cyclic-AMP phosphodiesterase 4D (Homo sapiens, UniProt Q08499); test: Inhibition of human recombinant PDE4D using cAMP as substrate incubated for 20 mins measured by Kinase Glo reagent based microplate reader assay
Chain of 3',5'-cyclic-AMP phosphodiesterase 4D (Q08499 whole entry): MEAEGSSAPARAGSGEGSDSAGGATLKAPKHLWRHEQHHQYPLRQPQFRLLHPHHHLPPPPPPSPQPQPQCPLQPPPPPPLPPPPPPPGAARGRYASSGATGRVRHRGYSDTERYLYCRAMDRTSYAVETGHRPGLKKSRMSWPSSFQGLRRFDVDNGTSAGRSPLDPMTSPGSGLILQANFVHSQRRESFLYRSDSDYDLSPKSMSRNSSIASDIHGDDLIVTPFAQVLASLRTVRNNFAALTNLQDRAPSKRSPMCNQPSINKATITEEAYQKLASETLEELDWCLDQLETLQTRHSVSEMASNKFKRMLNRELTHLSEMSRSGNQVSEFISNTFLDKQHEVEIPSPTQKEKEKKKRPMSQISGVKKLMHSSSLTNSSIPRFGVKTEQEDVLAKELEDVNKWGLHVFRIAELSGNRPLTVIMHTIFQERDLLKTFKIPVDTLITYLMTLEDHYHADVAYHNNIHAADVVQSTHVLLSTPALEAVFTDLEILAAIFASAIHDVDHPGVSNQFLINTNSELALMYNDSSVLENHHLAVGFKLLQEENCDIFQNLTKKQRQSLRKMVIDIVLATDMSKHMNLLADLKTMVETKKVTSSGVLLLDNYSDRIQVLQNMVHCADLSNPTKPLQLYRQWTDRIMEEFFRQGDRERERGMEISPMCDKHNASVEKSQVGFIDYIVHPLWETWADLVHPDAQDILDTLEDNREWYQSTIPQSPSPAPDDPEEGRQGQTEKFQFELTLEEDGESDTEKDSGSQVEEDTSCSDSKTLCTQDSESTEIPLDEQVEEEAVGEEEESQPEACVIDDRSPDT

[10] = Selectivity index, ratio of IC50 for inhibition of human recombinant PDE4D to IC50 for inhibition of human recombinant PDE4B
Mus musculus [11] = test: Hepatoprotective activity in ConA-induced BALB/c hepatitis mouse model assessed as decrease in serum IFNgamma level at 50 mg/kg, ip administration and measured after 8 hrs relative to control; type: functional, organism-based
Mus musculus [12] = test: Hepatoprotective activity in ConA-induced BALB/c hepatitis mouse model assessed as decrease in serum IL-6 level at 10 mg/kg, ip administration and measured after 8 hrs relative to control; type: functional, organism-based
Mus musculus [13] = test: Hepatoprotective activity in ConA-induced BALB/c hepatitis mouse model assessed as decrease in serum alanine aminotransferase level at 50 mg/kg, ip administration and measured after 8 hrs relative to control; type: functional, organism-based
Mus musculus [14] = test: Hepatoprotective activity in ConA-induced BALB/c hepatitis mouse model assessed as decrease in serum aspartate aminotransferase level at 10 mg/kg, ip administration and measured after 8 hrs relative to control; type: functional, organism-based
Rattus norvegicus [15] = test: Antiinflammatory activity in LPS-induced Wistar rat endotoxemia model assessed as decrease in plasma TNFalpha level at 5 mg/kg, ip measured after 1.5 hr; type: functional; set-up: scale not given: the % may be the effect or the level left
Rattus norvegicus [16] = test: Antiinflammatory activity in LPS-induced Wistar rat endotoxemia model assessed as decrease in plasma TNFalpha level at 5 mg/kg, ip measured after 2 hr; type: functional; set-up: scale not given: the % may be the effect or the level left
Rattus norvegicus [17] = test: Antiinflammatory activity in LPS-induced Wistar rat endotoxemia model assessed as decrease in plasma TNFalpha level at 5 mg/kg, ip measured after 1 hr; type: functional; set-up: scale not given: the % may be the effect or the level left
Mus musculus [18] = test: Hepatoprotective activity in ConA-induced BALB/c hepatitis mouse model assessed as decrease in serum IL-6 level at 50 mg/kg, ip administration and measured after 8 hrs relative to control; type: functional, organism-based
Mus musculus [19] = test: Hepatoprotective activity in ConA-induced BALB/c hepatitis mouse model assessed as decrease in serum IFNgamma level at 10 mg/kg, ip administration and measured after 8 hrs relative to control; type: functional, organism-based
Mus musculus [20] = test: Hepatoprotective activity in ConA-induced BALB/c hepatitis mouse model assessed as decrease in serum alanine aminotransferase level at 10 mg/kg, ip administration and measured after 8 hrs relative to control; type: functional, organism-based
Mus musculus [21] = test: Hepatoprotective activity in ConA-induced BALB/c hepatitis mouse model assessed as decrease in serum aspartate aminotransferase level at 50 mg/kg, ip administration and measured after 8 hrs relative to control; type: functional, organism-based

SMILES | IC50 [1] [µM] | IC50 [2] [µM] | other results
CCCCCn1c(-c2ccc([N+](=O)[O-])cc2)nc2c(N)ccnc21 | > 200 | > 200 | –
Nc1nc(O)c2nc(Br)n(C3CCCc4cccc(Br)c43)c2n1 (centres undefined) | – | 1.31 | –
c1coc(-c2nc3c(NCCc4cccs4)nccc3n2C2CCCC2)c1 | 2.8 | > 200 | –
CCCCCn1c(-c2ccc(OC)cc2)nc2c(N)ccnc21 | 41.5 | > 200 | –
CNc1nc(C(F)(F)F)nc2c1ncn2Cc1ccccc1F | 0.042 | – | –
CCCCCn1c(-c2ccccc2)nc2c(N)ccnc21 | 29 | > 200 | –
COCCNc1ccnc2c1nc(-c1ccco1)n2C1CCCC1 | 5.41 | 119 | –
COCCNc1nccc2c1nc(-c1ccco1)n2C1CCCC1 | 18.1 | 192 | –
CCCCCn1c(-c2ccco2)nc2c(NCCCO)ccnc21 | 49.7 | 63.6 | –
CCCCCn1c(-c2ccco2)nc2c(NCc3ccccc3)ccnc21 | 8.66 | > 200 | –
CCCCCn1c(-c2ccco2)nc2c(NCCCOC)nccc21 | 12.6 | 83.3 | –
CCCCCn1c(-c2ccco2)nc2c(NCCCOC)ccnc21 | 3.53 | 34.2 | IC50 [3]: 6.85 µM; Ratio IC50 [4]: > 10; IC50 [5]: 53.5 µM; IC50 [6]: 40.6 µM; IC50 [7]: 9.97 µM; IC50 [8]: 360 nM; IC50 [9]: 27.2 µM; Ratio IC50 [10]: 10
COCCCNc1nccc2c1nc(-c1ccco1)n2C1CCCC1 | 19.9 | 142 | –
CCCCCn1c(-c2ccccc2)nc2c(NCCCO)nccc21 | 60 | > 200 | –
COc1ccc(C2CNC(=O)C2)cc1OC1CCCC1 (centres undefined) [ROLIPRAM] | – | – | Activity (Mus musculus [11]): Active; Activity (Mus musculus [12]): Active; Activity (Mus musculus [13]): Active; Activity (Mus musculus [14]): Active; Activity (Rattus norvegicus [15]): 73.5%; Activity (Rattus norvegicus [16]): 77.1%; Activity (Rattus norvegicus [17]): 85.6%; Activity (Mus musculus [18]): Active; Activity (Mus musculus [19]): Active; Activity (Mus musculus [20]): Active; Activity (Mus musculus [21]): Active
CCCCCn1c(-c2ccccc2)nc2c(NCCCO)ccnc21 | 23.2 | > 200 | –
CCCCCn1c(-c2ccccc2)nc2c(NCCc3cccs3)ccnc21 | 7.09 | > 200 | –
